Results on 18 molecules are retold here after BindingDB's records for doi:10.1021/bi990204w (National Institute of Diabetes and Digestive and Kidney …, 1999).

pKi: −log10 of the molar value. Where a SMILES comes first, the peptide text is derived from it. [ ]: non-standard residue; d: D form. The star is where a group is joined. dProψ(CH2NH)PheNH2 = NC(=O)[C@H](Cc1ccccc1)NC[C@H]1CCCN1*; X1 = CC(C)C[C@@H](CN[C@@H](CC(C)C)C(N)=O)N*; Hydrocinnamoyl = O=C(CCc1ccccc1)*; pGlu = O=C1CC[C@@H](C(=O)O)N1

One may read the pKi as the Ki on a negative log10 scale, so that one unit is a factor of ten.

Assay [1] deals with Gastrin-releasing peptide receptor (Rattus norvegicus, UniProt P52500).
The target of assay [2] is T1, Neuromedin-B receptor (Rattus norvegicus, UniProt P24053).
T1 sequence (P24053 whole entry): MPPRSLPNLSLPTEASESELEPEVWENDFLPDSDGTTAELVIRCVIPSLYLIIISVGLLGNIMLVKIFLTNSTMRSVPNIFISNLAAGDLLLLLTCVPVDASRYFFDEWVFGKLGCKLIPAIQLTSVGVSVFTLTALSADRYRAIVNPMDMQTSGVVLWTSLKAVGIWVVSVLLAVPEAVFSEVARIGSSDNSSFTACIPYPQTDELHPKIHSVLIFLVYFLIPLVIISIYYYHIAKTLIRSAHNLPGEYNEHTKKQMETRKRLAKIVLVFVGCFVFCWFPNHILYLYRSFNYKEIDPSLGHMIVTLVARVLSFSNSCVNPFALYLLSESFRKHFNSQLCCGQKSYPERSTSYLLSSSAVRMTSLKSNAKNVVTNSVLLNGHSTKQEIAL

For assay [3], the target named is T2, Bombesin receptor subtype-3 (Homo sapiens, UniProt P32247).
T2 sequence (P32247 whole entry): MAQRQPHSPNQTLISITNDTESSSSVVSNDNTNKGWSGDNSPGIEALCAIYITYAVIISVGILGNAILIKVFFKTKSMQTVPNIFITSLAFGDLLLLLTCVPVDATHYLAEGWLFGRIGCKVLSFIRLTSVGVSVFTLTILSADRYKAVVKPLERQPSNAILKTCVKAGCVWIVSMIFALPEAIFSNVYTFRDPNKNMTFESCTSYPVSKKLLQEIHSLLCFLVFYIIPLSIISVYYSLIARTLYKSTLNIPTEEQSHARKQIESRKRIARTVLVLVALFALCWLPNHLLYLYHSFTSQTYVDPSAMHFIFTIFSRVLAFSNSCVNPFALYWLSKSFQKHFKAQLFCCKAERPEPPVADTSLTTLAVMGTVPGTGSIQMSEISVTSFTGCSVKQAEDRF

Gastrin-releasing peptide receptor, sequence (P52500 whole entry N28S): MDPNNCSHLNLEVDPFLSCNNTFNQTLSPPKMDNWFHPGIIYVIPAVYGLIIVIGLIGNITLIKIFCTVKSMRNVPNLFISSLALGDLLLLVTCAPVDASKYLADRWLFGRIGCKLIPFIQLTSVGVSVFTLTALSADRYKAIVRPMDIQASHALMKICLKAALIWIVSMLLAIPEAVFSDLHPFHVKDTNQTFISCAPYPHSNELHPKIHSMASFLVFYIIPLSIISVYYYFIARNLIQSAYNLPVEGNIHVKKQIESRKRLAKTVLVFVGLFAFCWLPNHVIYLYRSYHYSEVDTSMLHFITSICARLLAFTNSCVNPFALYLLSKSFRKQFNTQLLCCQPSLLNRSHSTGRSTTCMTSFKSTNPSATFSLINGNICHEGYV

Take `CSCC[C@H](NC(=O)[C@H](Cc1ccccc1)NC(=O)[C@H](Cc1c[nH]cn1)NC(=O)CNC(=O)[C@@H](NC(=O)[C@H](C)NC(=O)[C@H](Cc1c[nH]c2ccccc12)NC(=O)[C@H](CC(C)C)NC(=O)[C@@H]1CCC(=O)N1)[C@@H](C)O)C(N)=O` [CAS_125988]: the negative logarithm of the Ki (pKi) is 7.51 in assay [1], 6.34 in assay [2] and 5.51 in assay [3].

With `CC(C)C[C@@H](CN[C@@H](CC(C)C)C(N)=O)NC(=O)[C@H](Cc1cnc[nH]1)NC(=O)CNC(=O)[C@@H](NC(=O)[C@H](C)NC(=O)[C@H](Cc1c[nH]c2ccccc12)NC(=O)[C@H](CCC(N)=O)NC(=O)[C@H](CC(N)=O)NC(=O)CNC(=O)[C@H](CC(C)C)NC(=O)[C@H](CCCN=C(N)N)NC(=O)[C@H](CCC(N)=O)NC(=O)[C@@H]1CCC(=O)N1)C(C)C` [Leu13,Psi(CH2NH),Leu14-BN] ([pGlu]QRLGNQWAVGH-X1), the negative-log Ki (pKi) is 6.37 in assay [1], under 5.00 in assay [2] and under 5.00 in assay [3].

On to `CC(C)C[C@H](NC(=O)[C@H](CC(C)C)NC(=O)[C@@H](Cc1ccccc1)NC(=O)CNC(=O)[C@@H](NC(=O)[C@H](C)NC(=O)[C@H](Cc1c[nH]c2ccccc12)NC(=O)[C@H](CCC(N)=O)NC(=O)[C@@H](Cc1ccccc1)NC(=O)CNC(=O)[C@H](CC(C)C)NC(=O)[C@H](CCCN=C(N)N)NC(=O)[C@H](CCC(N)=O)NC(=O)[C@@H]1CCC(=O)N1)C(C)C)C(N)=O` [DPhe6,12,Leu14-Bn], for which the negative logarithm of the Ki (pKi) in assay [1] is 6.37; in assay [2] it was 5.64; in assay [3] it was under 5.00.

Take `CSCC[C@H](NC(=O)[C@H](CC(C)C)NC(=O)[C@H](Cc1c[nH]cn1)NC(=O)CNC(=O)[C@@H](NC(=O)[C@H](C)NC(=O)[C@H](Cc1c[nH]c2ccccc12)NC(=O)[C@H](Cc1c[nH]cn1)NC(=O)[C@H](CC(N)=O)NC(=O)CNC(=O)[C@H](CCCN=C(N)N)NC(=O)[C@@H]1CCCN1C(=O)[C@H](Cc1ccc(O)cc1)NC(=O)[C@H](CCSC)NC(=O)[C@H](CCCCN)NC(=O)[C@@H](NC(=O)[C@H](CC(C)C)NC(=O)[C@@H](NC(=O)[C@@H](NC(=O)CNC(=O)CNC(=O)CNC(=O)[C@H](C)NC(=O)[C@@H]1CCCN1C(=O)[C@H](CC(C)C)NC(=O)[C@@H]1CCCN1C(=O)[C@@H](N)C(C)C)[C@@H](C)O)C(C)C)[C@@H](C)O)C(C)C)C(N)=O` [CAS_93755-85-2]: the values for the pKi in assay [2] and in assay [3] were 6.36 and under 5.00, respectively.

Turning to `CC(C)C[C@H](NC(=O)[C@H](Cc1cnc[nH]1)NC(=O)CNC(=O)[C@@H](NC(=O)[C@H](C)NC(=O)[C@H](Cc1c[nH]c2ccccc12)NC(=O)[C@H](CCC(N)=O)NC(=O)[C@H](N)Cc1ccccc1)C(C)C)C(N)=O` [DPhe6-Bn(6-13)NH2], the negative-log Ki (pKi) in assay [1] was 7.57; in assay [2] it was under 5.00; in assay [3], under 5.00.

Regarding `CSCC[C@H](NC(=O)[C@H](CC(C)C)NC(=O)[C@H](Cc1cnc[nH]1)NC(=O)CNC(=O)[C@@H](NC(=O)[C@H](C)NC(=O)[C@H](Cc1c[nH]c2ccccc12)NC(=O)[C@H](Cc1cnc[nH]1)NC(=O)[C@H](CC(N)=O)NC(=O)CN)C(C)C)C(N)=O` [GRP-10,frog], the figures for the negative-log Ki (pKi) in assay [1], in assay [2] and in assay [3] were 6.89, under 5.00 and under 5.00, respectively.

`CSCC[C@H](NC(=O)[C@H](Cc1ccccc1)NC(=O)[C@H](CO)NC(=O)CNC(=O)[C@@H](NC(=O)[C@H](C)NC(=O)[C@H](Cc1c[nH]c2ccccc12)NC(=O)[C@H](CC(C)C)NC(=O)[C@@H]1CCC(=O)N1)C(C)C)C(N)=O` [NSC_5748287]: the pKi in assay [1] is 6.62; in assay [2] it was 7.33; in assay [3], 5.68.

`CSCC[C@H](NC(=O)[C@H](Cc1ccccc1)NC(=O)[C@H](Cc1cnc[nH]1)NC(=O)CNC(=O)[C@@H](NC(=O)[C@H](C)NC(=O)[C@H](Cc1c[nH]c2ccccc12)NC(=O)[C@H](CCC(N)=O)NC(=O)[C@H](CC(N)=O)NC(=O)CNC(=O)[C@H](CC(C)C)NC(=O)[C@H](CCCN=C(N)N)NC(=O)[C@H](CCC(N)=O)NC(=O)[C@@H]1CCC(=O)N1)C(C)C)C(N)=O` [Bombesin,Phe13]: the pKi in assay [1] is 9.11; in assay [2] it was 8.22; in assay [3], 5.18.

Turning to `CSCC[C@H](NC(=O)[C@H](Cc1ccccc1)NC(=O)[C@H](Cc1c[nH]cn1)NC(=O)CNC(=O)[C@@H](NC(=O)[C@H](C)NC(=O)[C@H](Cc1c[nH]c2ccccc12)NC(=O)[C@H](CCC(N)=O)NC(=O)[C@@H]1CCC(=O)N1)C(C)C)C(N)=O` [CAS_5486808], the pKi in assay [1] is 8.22; in assay [2], 8.15; in assay [3], 5.39.

`CC(C)[C@H](NC(=O)[C@H](C)NC(=O)[C@H](Cc1c[nH]c2ccccc12)NC(=O)[C@H](Cc1cnc[nH]1)NC(=O)CCc1ccccc1)C(=O)N[C@H](C)C(=O)N[C@@H](Cc1cnc[nH]1)C(=O)N1CCC[C@@H]1CN[C@@H](Cc1ccccc1)C(N)=O` [CAS_l] (Hydrocinnamoyl-HWAV[dA]H-{dProψ(CH2NH)PheNH2}): the pKi is 9.13 in assay [1] and under 5.00 in assay [2].

Take `CSCCC(NC(=O)C(CC(C)C)NC(=O)C(Cc1cnc[nH]1)NC(=O)CNC(=O)C(NC(=O)C(C)NC(=O)C(Cc1c[nH]c2ccccc12)NC(=O)C(Cc1cnc[nH]1)NC(=O)C(CC(N)=O)NC(=O)CN)C(C)C)C(N)=O` (configuration not stated) [NSC_5486814]: the negative logarithm of the Ki (pKi) in assay [1] is 7.70; in assay [2], 6.85; in assay [3] it was under 5.00.

In the case of `CC(C)C[C@H](NC(=O)[C@H](Cc1cnc[nH]1)NC(=O)CNC(=O)[C@@H](NC(=O)[C@H](C)NC(=O)[C@H](Cc1c[nH]c2ccccc12)NC(=O)[C@H](CCC(N)=O)NC(=O)[C@@H](Cc1ccccc1)NC(=O)CNC(=O)[C@H](CC(C)C)NC(=O)[C@H](CCCN=C(N)N)NC(=O)[C@H](CCC(N)=O)NC(=O)[C@@H]1CCC(=O)N1)C(C)C)C(N)=O` [DPhe6-Bn(1-13)NH2], the figures for the pKi in assay [1], in assay [2] and in assay [3] were 6.35, under 5.00 and under 5.00, respectively.

`CCCCNC(=O)[C@H](CC(C)C)NC(=O)[C@H](Cc1cnc[nH]1)NC(=O)[C@@H](C)NC(=O)[C@@H](NC(=O)[C@H](C)NC(=O)[C@H](Cc1c[nH]c2ccccc12)NC(=O)[C@H](CCC(N)=O)NC(=O)[C@H](N)Cc1ccc(O)cc1)C(C)C` [DTyr6,DAla11-Bn(6-13)butylamide]: the negative-log Ki (pKi) was 8.22 in assay [1], 5.64 in assay [2] and 5.28 in assay [3].

Regarding `CSCC[C@H](NC(=O)[C@@H](Cc1c[nH]c2ccccc12)NC(=O)[C@@H](Cc1c[nH]c2ccccc12)NC(=O)[C@H](Cc1ccccc1)NC(=O)[C@@H](Cc1c[nH]c2ccccc12)NC(=O)[C@H](CCC(N)=O)NC(=O)[C@H](CCC(N)=O)NC(=O)[C@H]1CCCN1)C(N)=O` [Substance P(4-11),[Dpro4,Dtrp7,9,10]] (H-[dP]QQ[dW]F[dW][dW]M-NH2), the values for the pKi in assay [1], in assay [2] and in assay [3] were under 5.00, 5.60 and 5.64, respectively.

Consider `CSCC[C@H](NC(=O)[C@H](Cc1ccccc1)NC(=O)[C@H](Cc1cnc[nH]1)NC(=O)CNC(=O)[C@@H](NC(=O)[C@H](CCCN=C(N)N)NC(=O)[C@H](Cc1c[nH]c2ccccc12)NC(=O)[C@H](CCC(N)=O)NC(=O)[C@H](CC(N)=O)NC(=O)CNC(=O)[C@H](CC(C)C)NC(=O)[C@H](CO)NC(=O)[C@H](CCC(N)=O)NC(=O)[C@@H]1CCC(=O)N1)C(C)C)C(N)=O` [CAS_31362-50-2] ([pGlu]QSLGNQWRVGHFM-NH2), for which the negative-log Ki (pKi) in assay [1] was 5.49; in assay [2] it was under 5.00; in assay [3], 5.15.

Take `CCCCCCNC(=O)[C@H](CC(C)C)NC(=O)[C@H](Cc1cnc[nH]1)NC(=O)CNC(=O)[C@@H](NC(=O)[C@H](C)NC(=O)[C@H](Cc1c[nH]c2ccccc12)NC(=O)[C@H](CCC(N)=O)NC(=O)[C@H](N)Cc1ccccc1)C(C)C` [DPhe6-Bn(6-13)hexylamide]: the negative logarithm of the Ki (pKi) in assay [1] was 7.00; in assay [2], under 5.00; in assay [3] it was 5.49.

On to `CSCC[C@H](NC(=O)[C@H](Cc1ccccc1)NC(=O)[C@H](Cc1c[nH]cn1)NC(=O)CNC(=O)[C@@H](NC(=O)[C@H](C)NC(=O)[C@H](Cc1c[nH]c2ccccc12)NC(=O)[C@H](CCC(N)=O)NC(=O)[C@@H]1CCCN1C(=O)[C@@H](NC(=O)[C@@H]1CCC(=O)N1)C(C)C)C(C)C)C(N)=O` [CAS_29451-71-6] ([pGlu]VPQWAVGHFM-NH2), for which the pKi in assay [1] is 8.70; in assay [2], 7.89; in assay [3] it was 5.16.

For the molecule `CSCC[C@H](NC(=O)[C@H](CC(C)C)NC(=O)[C@H](Cc1cnc[nH]1)NC(=O)CNC(=O)[C@@H](NC(=O)[C@H](C)NC(=O)[C@H](Cc1c[nH]c2ccccc12)NC(=O)[C@H](CCC(N)=O)NC(=O)[C@H](N)Cc1ccccc1)C(C)C)C(N)=O` [DPhe6-Bn[6-14)], the negative logarithm of the Ki (pKi) in assay [1] is 8.70; in assay [2] it was 7.85; in assay [3], under 5.00.
